Results taken from patent US20230220021A1, “CYCLIC PEPTIDE INHIBITORS OF PSD-95 AND USES THEREOF” (University of Copenhagen, priority 2020, published 2023).
Where two headings read alike, the source gives them in different places. Values belong to the molecule of their own block, whether it stands above or below them. Where a SMILES comes first, the peptide text is derived from it. Where no end group is shown, it is not given here. [ ]: non-standard residue; d: D form.

Tests used:
[1] = biological target: T1, PSD-95-PDZ2 (Homo sapiens, UniProt P78352); assay: Fluorescence polarization (FP) competition assay against cyclic nNOS TAMRA probe; format: binding; details: for Ki: FP competition, cyclic nNOS TAMRA probe, mean of triplicates, N.B. = not binding, read-out: Ki; for Relative Ki (Ki mut/Ki WT): FP inhibition constant normalized to WT value
T1 construct: 7xHis (N); made in house; host or cells: Escherichia coli B21 pLys (for the mutants, 'as previously described')

[2] = biological target: T1, PSD-95-PDZ2; assay: Isothermal titration calorimetry (ITC); format: binding; details: for fold improved binding affinity compared to the wild-type peptide: ITC Kd
Procedure: Isothermal titration calorimetry (ITC). The ITC assays were performed in NaPi 50 nM, 50 nM NaCl, pH 7.2 buffer filtered with a Corning® bottle-top vacuum filter system of a pore size of 0.22 μM, that was used to dissolve the peptides. Proteins were dialyzed against this buffer using Amicon® Ultra-15 centrifugal filter units, with a MWCO 3000 Da.
This assay was performed on an ITC200. The instrument differential power (DP) was set to 10 and the syringe rotating speed to 600 RPM. The assay setup consisted of introducing the protein inside the cell and the peptide (titrant) on the syringe. Calorimetry was performed at 25° C. Each analysis was performed in triplicates. Furthermore, several runs of peptide into buffer were performed in order to remove injection residual heat. Runs were analyzed with Origin 7.0 software (OriginLab).

[3] = biological target: T2, PSD-95-PDZ2 (Homo sapiens, UniProt P78352, V178C); assay: SPOT peptide array screening with TAMRA labelled PSD-95-PDZ2; format: binding; details: for Normalized SPOT fluorescence (Mut/WT): SPOT array, TAMRA labelled PSD-95-PDZ2-V178C, normalized to WT
T2 construct: screened with the TAMRA labelled PSD-95-PDZ2-V178C domain; 7xHis (N); made in house
Outline: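 First, arrays were blocked 1 h and scanned to record background. Next, 50 nM labelled PDZ2-V178C in PBS pH 7.2 with 0.5% BSA bound for 1 h protected from light. Finally, after washes, 532 nm fluorescence was measured and background-corrected.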

[4] = biological target: plasmin (Homo sapiens, UniProt P00747); assay: In vitro plasmin stability; format: in vitro ADME; details: 100 μM ligand, PBS with plasmin (10 μg/mL), 37° C., 0 to 360 minutes, mean n=3
Chain of plasmin (P00747 581-810 limits assumed, species assumed): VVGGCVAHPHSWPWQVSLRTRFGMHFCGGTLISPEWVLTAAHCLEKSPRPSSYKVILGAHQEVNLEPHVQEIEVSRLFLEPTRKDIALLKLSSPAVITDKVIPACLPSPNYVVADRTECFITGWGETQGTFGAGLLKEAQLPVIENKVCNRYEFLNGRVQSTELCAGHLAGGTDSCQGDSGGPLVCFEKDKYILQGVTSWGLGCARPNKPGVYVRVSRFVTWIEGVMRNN
Chain of plasmin (P00747 97-580 partner limits assumed, species assumed): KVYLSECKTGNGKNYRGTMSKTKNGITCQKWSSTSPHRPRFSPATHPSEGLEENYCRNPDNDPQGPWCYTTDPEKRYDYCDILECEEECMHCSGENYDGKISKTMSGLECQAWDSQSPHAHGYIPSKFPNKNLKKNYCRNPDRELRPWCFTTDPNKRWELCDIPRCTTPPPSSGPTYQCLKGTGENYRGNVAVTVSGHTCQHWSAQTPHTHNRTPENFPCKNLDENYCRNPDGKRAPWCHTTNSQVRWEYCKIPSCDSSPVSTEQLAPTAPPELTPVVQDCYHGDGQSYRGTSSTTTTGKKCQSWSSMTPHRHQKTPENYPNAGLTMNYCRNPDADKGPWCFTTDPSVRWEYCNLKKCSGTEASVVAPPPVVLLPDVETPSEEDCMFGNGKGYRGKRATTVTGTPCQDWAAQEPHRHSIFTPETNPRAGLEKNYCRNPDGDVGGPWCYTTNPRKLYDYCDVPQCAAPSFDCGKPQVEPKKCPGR
Procedure: The in vitro plasmin stability of peptides with SEQ ID NOs: 12, 68, 99 and 163 were determined by incubating 100 μM of ligand in phosphate buffered saline (PBS) supplemented with plasmin (10 μg/mL) at 37° C. for 0 to 360 minutes. At selected time points during the incubation, the ligands were extracted from 80 μL of assay matrix by treatment with 80 μL of 50% acetonitrile (ACN). The samples were filtered and analysed by UPLC to determine the amount of ligand remaining. LC-MS analysis was performed to confirm ligand integrity and identify cleavage sites.

Molecule: CC[C@H](C)[C@@H]1NC(=O)[C@H]([C@@H](C)O)NC(=O)[C@H](CCCCN)NC(=O)[C@@H]2CCCN2C(=O)[C@H](CCC(=O)O)NC(=O)CNC(=O)[C@H](CC(=O)O)NC(=O)CNC(=O)[C@H](Cc2c[nH]c3ccccc23)NC(=O)[C@H](Cc2ccccc2)NC(=O)[C@H]([C@@H](C)O)NC(=O)[C@H]([C@@H](C)O)NC(=O)[C@H](CCC(=O)O)NC(=O)[C@H](CC(C)C)NC(=O)[C@H](Cc2c[nH]cn2)NC(=O)[C@H]([C@@H](C)O)NC(=O)[C@H](CCC(N)=O)NC(=O)CNC(=O)[C@H]2CCCN2C(=O)[C@H](CCC(N)=O)NC(=O)[C@H]([C@@H](C)O)NC(=O)[C@H](C(C)C)NC(=O)[C@H](CCCNC(=N)N)NC1=O [compound 14] (cyclo(THLETTFWGDGEPKTIRVTQ[dP]GQ))
- Ki [1]: 110 nM
- ΔH ([2]; ITC, 25° C.): -7.208 ± 0.8381 kcal/mol
- −ΔS*T ([2]; ITC, 25° C.): -2.1487 ± 0.759 kcal/mol
- Kd ([2]; ITC, 25° C., read-out: Kd): 139 ± 18.2 nM
- Average (fluorescence raw data) ([3]; non-proteogenic AA scan, Hit1(T112W T116E) peptide scaffold, SPOT array incubated with TAMRA-labelled PSD-95-PDZ2, average of Pep. 1-3): 10.70 10^6
- Fluor. Pep. 1 (fluorescence raw data) ([3]; non-proteogenic AA scan, Hit1(T112W T116E) peptide scaffold, SPOT array incubated with TAMRA-labelled PSD-95-PDZ2, replicate peptide 1): 9.88 10^6
- Fluor. Pep. 2 (fluorescence raw data) ([3]; non-proteogenic AA scan, Hit1(T112W T116E) peptide scaffold, SPOT array incubated with TAMRA-labelled PSD-95-PDZ2, replicate peptide 2): 12.86 10^6
- Fluor. Pep. 3 (fluorescence raw data) ([3]; non-proteogenic AA scan, Hit1(T112W T116E) peptide scaffold, SPOT array incubated with TAMRA-labelled PSD-95-PDZ2, replicate peptide 3): 9.36 10^6

Molecule: CC[C@H](C)[C@@H]1NC(=O)[C@H]([C@@H](C)O)NC(=O)[C@H](CCCCN)NC(=O)[C@@H]2CCCN2C(=O)[C@H](CCC(=O)O)NC(=O)CNC(=O)[C@H](CC(=O)O)NC(=O)CNC(=O)[C@H](Cc2c[nH]c3ccccc23)NC(=O)[C@H](Cc2ccccc2)NC(=O)[C@H]([C@@H](C)O)NC(=O)[C@H]([C@@H](C)O)NC(=O)[C@H](CCC(=O)O)NC(=O)[C@H](CC(C)C)NC(=O)[C@H](Cc2cncn2C)NC(=O)[C@H]([C@@H](C)O)NC(=O)[C@H](CCC(N)=O)NC(=O)CNC(=O)[C@H]2CCCN2C(=O)[C@H](CCC(N)=O)NC(=O)[C@H]([C@@H](C)O)NC(=O)[C@H](C(C)C)NC(=O)[C@H](CCCNC(=N)N)NC1=O [SEQ ID NO: 16]
- fold improved binding affinity compared to the wild-type peptide [2]: 75 fold

Molecule: CC[C@H](C)[C@@H]1NC(=O)[C@H]([C@@H](C)O)NC(=O)[C@H](CCCCN)NC(=O)[C@@H]2CCCN2C(=O)[C@H]([C@@H](C)O)NC(=O)CNC(=O)[C@H](CC(=O)O)NC(=O)CNC(=O)[C@H]([C@@H](C)O)NC(=O)[C@H](Cc2ccccc2)NC(=O)[C@H]([C@@H](C)O)NC(=O)[C@H]([C@@H](C)O)NC(=O)[C@H](CCC(=O)O)NC(=O)[C@H](CC(C)C)NC(=O)[C@H](Cc2c[nH]cn2)NC(=O)[C@H]([C@@H](C)O)NC(=O)[C@H](CCC(N)=O)NC(=O)CNC(=O)[C@H]2CCCN2C(=O)[C@H](CCC(N)=O)NC(=O)[C@H]([C@@H](C)O)NC(=O)[C@H](C(C)C)NC(=O)[C@H](CCCNC(=N)N)NC1=O [SEQ ID NO: 12]
- Kd ([2]; 25° C., tested up to 100 μM, read-out: affinity (Kd) by ITC): 2200 ± 300 nM

Molecule: CC[C@H](C)[C@@H]1NC(=O)[C@H]([C@@H](C)O)NC(=O)[C@H](CCCCN)NC(=O)[C@@H]2CCCN2C(=O)[C@H](CCC(=O)O)NC(=O)CNC(=O)[C@H](CC(=O)O)NC(=O)CNC(=O)[C@H](Cc2c[nH]c3ccccc23)NC(=O)[C@H](Cc2ccccc2)NC(=O)[C@H]([C@@H](C)O)NC(=O)[C@H]([C@@H](C)O)NC(=O)[C@H](CCC(=O)O)NC(=O)[C@H](CC(C)C)NC(=O)[C@H](Cc2c[nH]cn2)NC(=O)[C@H]([C@@H](C)O)NC(=O)[C@H](CCC(N)=O)NC(=O)CNC(=O)[C@H]2CCCN2C(=O)[C@H](CCC(N)=O)NC(=O)[C@H]([C@@H](C)O)NC(=O)[C@H](C(C)C)NC(=O)[C@H](CCCNC(=N)N)NC1=O [SEQ ID NO: 14] (cyclo(THLETTFWGDGEPKTIRVTQ[dP]GQ))
- fold improved binding affinity compared to the wild-type peptide [2]: 16 fold

Molecule: CC[C@H](C)[C@@H]1NC(=O)[C@H]([C@@H](C)O)NC(=O)[C@H](CCCCN)NC(=O)[C@@H]2CCCN2C(=O)[C@H](CCC(=O)O)NC(=O)CNC(=O)[C@H](CC(=O)O)NC(=O)CNC(=O)[C@H](Cc2c[nH]c3ccccc23)NC(=O)[C@H](Cc2ccccc2)NC(=O)[C@H]([C@@H](C)O)NC(=O)[C@H]([C@@H](C)O)NC(=O)[C@H](CCC(=O)O)NC(=O)[C@H](CC(C)C)NC(=O)[C@H](Cc2cncn2C)NC(=O)[C@H]([C@@H](C)O)NC(=O)[C@H](CCC(N)=O)NC(=O)CNC(=O)[C@H]2CCCN2C(=O)[C@H](CCC(N)=O)NC(=O)[C@H]([C@@H](C)O)NC(=O)[C@H](C(C)C)NC(=O)[C@H](CCCNC(=N)N)NC1=O [compound 16]
- ΔH ([2]; ITC, 25° C.): -6.6378 ± 0.1229 kcal/mol
- −ΔS*T ([2]; ITC, 25° C.): -3.6598 ± 0.239 kcal/mol

Now from value to molecule:

- affinity (Kd) by ITC ([2]; 25° C., tested up to 100 μM): did not show binding
Molecule: THLETTFTGDGTPKTIRVTQpGQE (THLETTFTGDGTPKTIRVTQ[dP]GQE) [SEQ ID NO: 137]

- half-life at 100 μM ([4]; plasmin (isolated protease, 10 μg/mL) in PBS): 1.4 h
Molecule: CC[C@H](C)[C@@H]1NC(=O)[C@H]([C@@H](C)O)NC(=O)[C@H](CCCCN)NC(=O)[C@@H]2CCCN2C(=O)[C@H]([C@@H](C)O)NC(=O)CNC(=O)[C@H](CC(=O)O)NC(=O)CNC(=O)[C@H](Cc2c[nH]c3ccccc23)NC(=O)[C@H](Cc2ccccc2)NC(=O)[C@H]([C@@H](C)O)NC(=O)[C@H]([C@@H](C)O)NC(=O)[C@H](CCC(=O)O)NC(=O)[C@H](CC(C)C)NC(=O)[C@H](Cc2c[nH]cn2)NC(=O)[C@H]([C@@H](C)O)NC(=O)[C@H](CCC(N)=O)NC(=O)CNC(=O)[C@H]2CCCN2C(=O)[C@H](CCC(N)=O)NC(=O)[C@H]([C@@H](C)O)NC(=O)[C@H](C(C)C)NC(=O)[C@H](CCCNC(=N)N)NC1=O [compound 163] (cyclo(THLETTFWGDGTPKTIRVTQ[dP]GQ))

- Ki [1]: 990 nM
- half-life at 100 μM ([4]; plasmin (10 μg/mL) in phosphate buffered saline): 2.83 h
Molecule: CC[C@H](C)[C@@H]1NC(=O)[C@H]([C@@H](C)O)NC(=O)[C@H](CCCCN)NC(=O)[C@@H]2CCCN2C(=O)[C@H]([C@@H](C)O)NC(=O)CNC(=O)[C@H](CC(=O)O)NC(=O)CNC(=O)[C@H]([C@@H](C)O)NC(=O)[C@H](Cc2ccccc2)NC(=O)[C@H]([C@@H](C)O)NC(=O)[C@H]([C@@H](C)O)NC(=O)[C@H](CCC(=O)O)NC(=O)[C@H](CC(C)C)NC(=O)[C@H](Cc2c[nH]cn2)NC(=O)[C@H]([C@@H](C)O)NC(=O)[C@H](CCC(N)=O)NC(=O)CNC(=O)[C@H]2CCCN2C(=O)[C@H](CCC(N)=O)NC(=O)[C@H]([C@@H](C)O)NC(=O)[C@H](C(C)C)NC(=O)[C@H](CCCNC(=N)N)N(C)C1=O [compound 99]

- Ki [1]: 17000 nM
- Relative Ki (Ki mut/Ki WT) [1]: 11.33
- Normalized SPOT fluorescence (Mut/WT) [3]: 0.09
Molecule: CC[C@H](C)[C@@H]1NC(=O)[C@H](C)NC(=O)[C@H](CCCCN)NC(=O)[C@@H]2CCCN2C(=O)[C@H]([C@@H](C)O)NC(=O)CNC(=O)[C@H](CC(=O)O)NC(=O)CNC(=O)[C@H]([C@@H](C)O)NC(=O)[C@H](Cc2ccccc2)NC(=O)[C@H]([C@@H](C)O)NC(=O)[C@H]([C@@H](C)O)NC(=O)[C@H](CCC(=O)O)NC(=O)[C@H](CC(C)C)NC(=O)[C@H](Cc2c[nH]cn2)NC(=O)[C@H]([C@@H](C)O)NC(=O)[C@H](CCC(N)=O)NC(=O)CNC(=O)[C@H]2CCCN2C(=O)[C@H](CCC(N)=O)NC(=O)[C@H]([C@@H](C)O)NC(=O)[C@H](C(C)C)NC(=O)[C@H](CCCNC(=N)N)NC1=O [compound 69] (cyclo(THLETTFTGDGTPKAIRVTQ[dP]GQ))

- Relative Ki (Ki mut/Ki WT) [1]: 1.01
- Normalized SPOT fluorescence (Mut/WT) [3]: 0.42
Molecule: CC[C@H](C)[C@@H]1NC(=O)[C@H]([C@@H](C)O)NC(=O)[C@H](CCCCN)NC(=O)[C@@H]2CCCN2C(=O)[C@H]([C@@H](C)O)NC(=O)CNC(=O)[C@H](CC(=O)O)NC(=O)CNC(=O)[C@H]([C@@H](C)O)NC(=O)[C@H](Cc2ccccc2)NC(=O)[C@H]([C@@H](C)O)NC(=O)[C@H]([C@@H](C)O)NC(=O)[C@H](CCC(=O)O)NC(=O)[C@H](CC(C)C)NC(=O)[C@H](Cc2c[nH]cn2)NC(=O)[C@H]([C@@H](C)O)NC(=O)[C@H](CCC(N)=O)NC(=O)CNC(=O)[C@H]2CCCN2C(=O)[C@H](C)NC(=O)[C@H]([C@@H](C)O)NC(=O)[C@H](C(C)C)NC(=O)[C@H](CCCNC(=N)N)NC1=O [compound 74] (cyclo(THLETTFTGDGTPKTIRVTA[dP]GQ))
